This assay deals with T1, Human M4 (Homo sapiens, UniProt P08173).
T1 sequence (P08173 1-479): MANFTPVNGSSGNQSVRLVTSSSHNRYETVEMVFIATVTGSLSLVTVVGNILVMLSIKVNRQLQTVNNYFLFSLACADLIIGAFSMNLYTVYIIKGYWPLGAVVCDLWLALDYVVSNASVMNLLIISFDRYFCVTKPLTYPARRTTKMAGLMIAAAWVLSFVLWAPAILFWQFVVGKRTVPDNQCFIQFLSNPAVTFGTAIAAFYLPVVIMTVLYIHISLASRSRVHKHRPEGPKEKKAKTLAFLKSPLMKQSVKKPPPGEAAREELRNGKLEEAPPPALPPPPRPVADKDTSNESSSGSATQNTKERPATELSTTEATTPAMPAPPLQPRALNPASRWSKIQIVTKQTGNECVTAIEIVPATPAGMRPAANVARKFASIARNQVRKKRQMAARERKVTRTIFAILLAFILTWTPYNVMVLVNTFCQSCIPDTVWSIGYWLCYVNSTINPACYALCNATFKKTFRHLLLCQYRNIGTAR
Description: mAChR M4 cell-based functional assay (calcium flux, potentiation of EC20 acetylcholine response). Also on record: Emax: dose or concentration left out as unconfirmed. The note with it: for Emax: CHO-K1. For orientation: A change in cytosolic calcium serves as a functional read-out for many receptors and channels.

Where a name gives a salt, the structure may show the parent alone.

For the compound `Cc1nc2sc3c(N4CC5CC5C4)nncc3c2c(C)c1Cl` (stereo not drawn) [Compound 3, 8-(3-azabicyclo[3.1.0]hexan-3-yl)-3-chloro-2,4-dimethylpyrido[3′,2′:4,5]thieno[2,3-d]pyridazine], the EC50 (commonly the concentration at which the effect is half-maximal) stood at 480 nM and the Emax – broadly, the maximal effect, on the per cent scale that the assay sets – is 80.4%.

For the compound `Cc1nc2sc3c(NCc4ccc(OC(F)F)cc4)nncc3c2c(C)c1Cl` [Compound 4, 3-chloro-N-(4-(difluoromethoxy)benzyl)-2,4-dimethylpyrido[3′,2′:4,5]thieno[2,3-d]pyridazin-8-amine], the EC50 is 540 nM and the Emax was determined as 41%.

For the compound `COc1ccc(CNc2nncc3c2sc2nc(C)c(Cl)c(C)c23)cc1F` [Compound 5, 3-chloro-N-(3-fluoro-4-methoxybenzyl)-2,4-dimethylpyrido[3′,2′:4,5]thieno[2,3-d]pyridazin-8-amine], the EC50 was found to be 1310 nM and the Emax is 69.4%.

Consider `COCCCNc1nncc2c1sc1nc(C)c(Cl)c(C)c12` [Compound 7, 3-chloro-N-(3-methoxypropyl)-2,4-dimethylpyrido[3′,2′:4,5]thieno[2,3-d]pyridazin-8-amine hydrochloride], for which the concentration giving a half-maximal response (EC50) is 340 nM and the Emax was 70%.

On to `Cc1nc2sc3c(NC4CC4)nncc3c2c(C)c1Cl` [Compound 11, 3-chloro-N-cyclopropyl-2,4-dimethylpyrido[3′,2′:4,5]thieno[2,3-d]pyridazin-8-amine hydrochloride], for which the EC50 turned out to be 81 nM and the Emax is 100%.

Turning to `Cc1nnc2sc3c(NCc4ccc(C(C)(C)O)cc4)nncc3c2c1C` [Compound 12, 2-(4-(((3,4-dimethylthieno[2,3-c:4,5-d′]dipyridazin-8-yl)amino)methyl)phenyl)propan-2-ol], the Emax is 99.4%.

As to `[2H]C([2H])(Nc1nncc2c1sc1nnc(C)c(C)c12)c1ccc(C(C)(C)O)cc1` [Compound 13, 2-(4-(((3,4-dimethylthieno[2,3-c:4,5-d′]dipyridazin-8-yl)amino)methyl-d2)phenyl)propan-2-ol], the EC50 is 727 nM and the Emax turned out to be 91.9%.

On to `[2H]C([2H])([2H])C(O)(c1ccc(CNc2nncc3c2sc2nnc(C)c(C)c23)cc1)C([2H])([2H])[2H]` [Compound 14, 2-(4-(((3,4-dimethylthieno[2,3-c:4,5-d′]dipyridazin-8-yl)amino)methyl)phenyl)propan-1,1,1,3,3,3-d6-2-ol], for which the EC50 came to 746 nM and the Emax worked out at 89.4%.

For the compound `Cc1nnc2sc3c(N4CCCC4)nncc3c2c1C` [Compound 15, 3,4-dimethyl-8-(pyrrolidin-1-yl)thieno[2,3-c:4,5-d′]dipyridazine], the Emax stood at 95.8%.

In the case of `Cc1nnc2sc3c(NCc4ccc(C(C)(C)CO)cc4F)nncc3c2c1C` [Compound 16, 2-(4-(((3,4-dimethylthieno[2,3-c:4,5-d′]dipyridazin-8-yl)amino)methyl)-3-fluorophenyl)-2-methylpropan-1-ol], the EC50 was determined as 779 nM and the Emax came out at 77.4%.

With `COc1ccc(CNc2nncc3c2sc2nnc(C)c(C)c23)cc1F` [Compound 17, N-(3-fluoro-4-methoxybenzyl)-3,4-dimethylthieno[2,3-c:4,5-d′]dipyridazin-8-amine], the maximal effect (Emax) is 86.7%.

Consider `Cc1nnc2sc3c(NCc4ccc(-n5cccn5)cc4)nncc3c2c1C` [Compound 18, N-(4-(1H-pyrazol-1-yl)benzyl)-3,4-dimethylthieno[2,3-c:4,5-d′]dipyridazin-8-amine], for which the EC50 was found to be 560 nM and the Emax came out at 72.7%.

Take `Cc1nnc2sc3c(N4CC(Oc5cccnc5)C4)nncc3c2c1C` [Compound 19, 3,4-dimethyl-8-(3-(pyridin-3-yloxy)azetidin-1-yl)thieno[2,3-c:4,5-d′]dipyridazine]: the EC50 was determined as 2110 nM and the Emax amounted to 51.3%.

As for `Cc1nnc2sc3c(N4CC[C@H](Oc5cccnc5)C4)nncc3c2c1C` [Compound 20, (S)-3,4-dimethyl-8-(3-(pyridin-3-yloxy)pyrrolidin-1-yl)thieno[2,3-c:4,5-d′]pyridazine], the EC50 was found to be 214 nM and the Emax amounted to 70.3%.

Take `Cc1nc2sc3c(N4CCCC4)nnc(C)c3c2c(C)c1Cl` [Compound 21, 3-Chloro-2,4,5-trimethyl-8-(pyrrolidin-1-yl)pyrido[3′,2′:4,5]thieno[2,3-d]pyridazine]: the EC50 came to 1630 nM and the Emax is 50.4%.
